In patent publication US8980936B2, “Phenoxy-pyrrolidine derivative and its use and compositions” (Thesan Pharmaceuticals, Inc., priority 2007, dated 2015):

Columns and labels:
[1] = tested on: sebum production; conditions: background statement, cited from earlier work
[2] = target: T1, stearoyl CoA desaturase (SCD1) (Rattus norvegicus, UniProt P07308); assay: Rat microsomal assay: conversion of labeled stearoyl CoA to oleoyl CoA by LC/MS/MS; assay type: biochemical; conditions: rat liver microsomes; 40 μM substrate (2× Km); mean of N=3; read-out: IC50, inhibition of SCD1 activity (conversion of stearoyl CoA to oleoyl CoA)
T1 construct: Rat liver microsomes are allowed to react with stearoyl-coenzyme A labeled with D3; from tissue
T1 sequence (P07308 1-358): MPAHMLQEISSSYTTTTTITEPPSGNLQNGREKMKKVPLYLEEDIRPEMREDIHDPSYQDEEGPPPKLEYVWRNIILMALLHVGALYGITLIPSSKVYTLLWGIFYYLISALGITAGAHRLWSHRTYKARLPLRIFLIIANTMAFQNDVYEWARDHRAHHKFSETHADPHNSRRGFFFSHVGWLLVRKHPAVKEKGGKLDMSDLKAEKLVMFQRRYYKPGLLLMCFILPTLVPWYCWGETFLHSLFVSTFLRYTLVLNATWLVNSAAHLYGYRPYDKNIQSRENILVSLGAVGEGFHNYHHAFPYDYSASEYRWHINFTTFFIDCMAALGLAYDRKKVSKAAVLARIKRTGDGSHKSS
Procedure: As described below, the assay measures the conversion of labeled stearoyl CoA to oleoyl CoA using LC/MS/MS.
In order to increase SCD1 activity in rat liver microsomes, Sprague Dawley rats are fasted for 40 hours. Following fasting diet is replaced with free fatty acid deficient chow ad libitum for 48 hours. Rats are then euthanized using CO2 asphyxiation and their livers are removed. Livers are weighed, minced and placed in homogenization buffer ([…], 50 mM Tris-HCl, pH 7.5, 5 mM EDTA, 1.5 mM GSH) on ice. Microsomes are isolated by homogenization with a polytron and several centrifugation steps. Following final centrifugation, the resulting pellet is resuspended in homogenization buffer and protein concentration is determined. Aliquots are stored at −80° C. until use.
Rat liver microsomes are allowed to react with stearoyl-coenzyme A labeled with D3 in the presence of the compound of Formula I to test the compound's ability to inhibit the conversion of stearoyl-coenzyme A to oleoyl coenzyme A. The reaction is terminated using acetonitrile. Free fatty acids are extracted by saponification of the samples with 2M KOH at 70° C. […] Samples are reconstituted in 9:1 Methanol:Water, with 2 ug/ml heptadecanoic acid added as an internal standard, and analyzed by LC/MS/MS. The ability to inhibit the conversion of stearoyl CoA to oleoyl CoA is expressed as an IC50.

[3] = target: T2, SCD1 enzyme in intact human cells (Homo sapiens, UniProt O00767); assay: Human adipocyte (AdipoRed) assay: production of triglycerides; assay type: cell-based; conditions: differentiated human subcutaneous adipocytes; 6 days compound treatment; mean of N=6; read-out: IC50, inhibition of the production of triglycerides
T2 construct: The cells were received as pre-adipocytes and then differentiated for 5 days in a 384 well format; host or cells: cryopreserved human subcutaneous preadipocytes, differentiated to adipocytes
T2 sequence (O00767 1-359): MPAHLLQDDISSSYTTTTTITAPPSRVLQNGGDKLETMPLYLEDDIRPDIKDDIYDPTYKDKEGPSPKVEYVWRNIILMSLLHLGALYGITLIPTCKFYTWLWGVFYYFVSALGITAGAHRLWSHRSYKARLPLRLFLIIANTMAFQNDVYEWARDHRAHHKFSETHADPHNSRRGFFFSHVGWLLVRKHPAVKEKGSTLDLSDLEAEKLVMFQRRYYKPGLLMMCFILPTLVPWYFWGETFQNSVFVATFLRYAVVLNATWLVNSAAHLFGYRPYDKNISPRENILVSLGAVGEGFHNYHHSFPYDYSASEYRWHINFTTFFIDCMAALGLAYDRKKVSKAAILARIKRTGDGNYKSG
Procedure: The role of SCD1 is believed to be similar in adipocytes and sebocytes. The ability of the compound to inhibit the SCD1 enzyme in intact human cells was determined using the Human AdipoRed assay as described below. The cells were received as pre-adipocytes and then differentiated for 5 days in a 384 well format. The compound is added at various concentrations for 6 days. The production of triglycerides was then assessed by a unique dye which specifically binds to secreted triglycerides. The ability to inhibit the production of triglycerides is expressed as an IC50.
Cryopreserved subcutaneous preadipocytes (Cat #: PT-5001 Supplier: Cambrex Bio Science) were briefly thawed in 37 C and spin down at 1000 rpm for 5 minutes. Preadipocyte are resuspended in 30 ml of Growth Media (GM, Cat #: PT-8202 Cambrex Bio Science) and are diluted to final concentration of 75,000 cells/ml. 40 μl of Cells are then plated into wells of 384-Well BD Falcon polystyrene assay plate at the density of 3,000 cells (40 μl) per well. […]
After 5 days' differentiation, cells were treated with 2 μl of the compound from 96-well compound plate in duplicate by Biomek FX. […] The accumulation of intracellular triglycerides is then quantified by measuring fluoresce at 572 nm on a SpectraMax M5 microplate reader.

[4] = tested on: male Syrian hamsters; assay: Hamster ear model: inhibition of sebum production; assay type: in vivo, Syrian hamster
From the text: The hamster ear model is a validated animal model for testing whether compounds are capable of modulating sebaceous gland function and sebum secretion. Luderschmidt et al, Arch. Derm. Res. 258, 185-191 (1977). This model uses male Syrian hamsters, whose ears contain sebaceous glands. The compound of the invention was screened in this model according to the procedure outlined below. In these studies, the hamsters are topically dosed twice daily (BID) for 2 weeks, 5 days a week (Monday to Friday). Each dose consisted of 25 μl of vehicle control or formulated test article, which was evenly applied to ˜3 cm^2 of the ventral surfaces of both the right and left ears. At sacrifice, skin punches are taken for lipid analysis, histology and skin concentrations of the test compound.
Male Syrian hamsters aged 9 to 10 weeks were introduced into the laboratory environment and acclimated for 2 weeks prior to use in the study. Each group consisted of 5 animals and run in parallel with vehicle and positive controls. […]
Animals were dosed topically twice daily, five days a week, for 2 weeks. Each dose consisted of 25 μl of vehicle control or drug. The dose was applied to the ventral surfaces of both the right and left ears. All animals were sacrificed approximately 18-24 hours after the final dose. The right ears were collected from each animal and used for sebum analysis.
The ears were prepped for HPLC analysis in the following manner. One 8 mm distal biopsy punch was taken, just above the anatomical “V” mark in the ear to normalize the sample area. The punch was pulled apart. The ventral biopsy surface (the area where the topical dose was directly applied to the sebaceous glands) was retained for testing and the dorsal surface of the biopsy punch was discarded.
Tissue samples were blown with N2 gas and stored at −80° C. under nitrogen until HPLC analysis. In addition to ear samples, an aliquot of each drug and vehicle (at least 250 μl) was also stored at −80° C. for inclusion in the HPLC analysis.
HPLC analysis was carried out on an extract of the tissue sample. Tissue samples were contacted with 3 ml of solvent (a 4:1 admixture of 2,2,4-trimethylpentane and isopropyl alcohol). The mixture was shaken for 15 minutes and stored overnight at room temperature, protected from light. The next morning 1 milliliter of water was added to the sample and shaken for 15 minutes. The sample was then centrifuged at approximately 1500 rpm for 15 minutes. Two ml of the organic phase (top layer) was transferred to a glass vial, dried at 37° C., under nitrogen, for approximately 1 hour, and then lyophilized for approximately 48 hours. The samples were then removed from the lyophilizer and each vial was reconstituted with 600 μl of solvent A (trimethylpentane/tetrahydrofuran (99:1). The samples were then recapped and vortexed for 5 minutes.
200 μl of each sample was then transferred to a pre-labeled 200 μl HPLC vial with 200 μL glass inserts. The HPLC vials were placed in the autosampler tray for the Agilent 1100 series HPLC unit. The Agilent 1100 HPLC system consisted of a thermostated autosampler, a quaternary pump, a column heater, and an A/D interface module. All components were controlled by Agilent ChemStation software. A Waters Spherisorb S3W […] analytical column was maintained at 30° C. by the Agilent column heater unit. The HPLC autosampler was programmed to maintain the sample temperature at 20° C. throughout the run.
10 μL of each sample was injected in triplicate into the column. Two solvents were used for the solvent gradient. Solvent A was an admixture of trimethylpentane and tetrahydrofuran (99:1). Solvent B was ethyl acetate. The gradient utilized is described in the table below: […]
The Sedex 75 Evaporative Light Scattering Detector (ELSD) was operated at 45° C. with a gain of 5, and N2 pressure maintained at 3.1 bar. Analog signal obtained by the instrument was sent to the Agilent A/D interface module where it was converted to a digital output. […]

[5] = dose response experiment, formulated in propylene glycol:ethanol 30.70 (w/v), topical
[6] = dosed at 1.5% in propylene glycol/transcutanol/ethanol 20/20/60, topical BID, 2 weeks, hamster ear
[7] = two week topical BID application, propylene glycol:ethanol 30.70

Compound: CCOC(=O)/C=C(C)/C=C/C=C(C)/C=C/c1c(C)cc(OC)c(C)c1C [etretinate]
- effect on sebum synthesis ([1]; Zouboulis 2004): do not reduce sebum synthesis

Compound: CC1=C(/C=C/C(C)=C/C=C/C(C)=C\C(=O)O)C(C)(C)CCC1 [Isotretinoin]
- suppression of sebum production [1]: up to 90%

Compound: O=C(COc1ccc(CO)cc1)N1CC[C@H](Oc2ccccc2C(F)(F)F)C1 [compound of Formula I, (S)-2-(4-(hydroxymethyl)phenoxy)-1-(3-(2-(trifluoromethyl)phenoxy)pyrroli-din-1-yl)ethanone]
- IC50 [2]: 5.8 nM
- IC50 [3]: 6.8 nM
- CE and WE production, dose response [4, 5]: dose dependent decrease of both CE and WE production
- sebaceous gland size and number, histology [4, 5]: Dose related changes in sebaceous gland size and number
- reduction in cholesterol ester (CE) compared to vehicle control [4, 6]: 62%
- reduction in wax ester (WE) compared to vehicle control [4, 6]: 82%
- sebaceous gland size [4, 6]: reduction in sebaceous gland size
- ED50 based on WE reduction [4, 7]: 0.3%
- ED50 based on WE reduction, per area [4, 7]: 0.025 mg/cm^2
